Here are results for 13 compounds from ChEMBL document CHEMBL1129093, “Synthesis and biological activities of a novel class of azole-containing antifungal agents” (1996).

Converted amounts (≈) assume the structure as drawn.

In experiment [1] the test system is Cryptococcus neoformans. As to the kind of experiment: Compound was tested in vitro for antifungal activity against Cryptococcus neoformans. It is filed as functional.
In experiment [2] the test system is Candida albicans. As to the kind of experiment: Compound was tested in vitro for antifungal activity against Candida albicans. In kind it is functional.
The test system of experiment [3] is Kluyveromyces marxianus. Put plainly: Compound was tested in vitro for antifungal activity against Candida kefyr. It is filed as functional.
Experiment [4] has as its system Aspergillus flavus. As to the kind of experiment: (§1) Compound was tested in vitro for antifungal activity against Aspergillus flavus. It is filed as functional, asperigillus.
The subject of experiment [5] is Aspergillus fumigatus. As to the kind of experiment: Compound was tested in vitro for antifungal activity against Aspergillus fumigatus. In kind it is functional.
The subject of experiment [6] is Trichophyton benhamiae. As to the kind of experiment: (§2) Compound was tested in vitro for antifungal activity against Trichophyton mentagrophytes. It is filed as functional, trichophyton mentagro.
The test system of experiment [7] is Aspergillus flavus. The experiment is described as §1. It is filed as functional.
In experiment [8] the test system is Trichophyton benhamiae. Described as §2. In kind it is functional, Arthroderma benhamiae.

One may read the MIC as the smallest concentration in the dilution series that meets the test's criterion for growth inhibition. A lower MIC goes with greater potency. Regarding `Clc1ccc(CN2CCc3ccccc3C2Cn2cncn2)cc1` (stereo not drawn), the MIC in experiment [1] was 6.25 µg/mL (≈ 18.4 µM); in experiment [2], over 50 µg/mL; in experiment [3] it was 0.39 µg/mL (≈ 1.15 µM); in experiment [4], 25 µg/mL (≈ 73.8 µM); in experiment [5] it was 4 µg/mL (≈ 11.8 µM); in experiment [6], 0.25 µg/mL (≈ 0.738 µM).

Turning to `c1ccc(CN2CCc3ccccc3C2Cn2ccnc2)cc1` (stereo not drawn), the MIC in experiment [1] is over 50 µg/mL; in experiment [2], over 50 µg/mL; in experiment [3] it was over 50 µg/mL; in experiment [4] it was 25 µg/mL (≈ 82.4 µM); in experiment [5], 25 µg/mL (≈ 82.4 µM); in experiment [6], 0.19 µg/mL (≈ 0.626 µM).

`Clc1ccc(CN2CCc3ccccc3C2Cn2ccnc2)c(Cl)c1` (stereo not drawn): the MIC in experiment [1] is 1.56 µg/mL (≈ 4.19 µM); in experiment [2], over 50 µg/mL; in experiment [3], 0.19 µg/mL (≈ 0.51 µM); in experiment [4], 0.78 µg/mL (≈ 2.1 µM); in experiment [5] it was 0.39 µg/mL (≈ 1.05 µM); in experiment [6] it was 6.25 µg/mL (≈ 16.8 µM).

As for `Fc1ccc(CN2CCc3ccccc3C2Cn2cncn2)cc1` (stereo not drawn), the MIC in experiment [1] was over 50 µg/mL; in experiment [2], over 50 µg/mL; in experiment [3], over 50 µg/mL; in experiment [4], over 50 µg/mL; in experiment [5] it was over 50 µg/mL; in experiment [6], 1 µg/mL (≈ 3.1 µM).

For the compound `Fc1ccc(CN2CCc3ccccc3C2Cn2ccnc2)c(F)c1` (stereo not drawn), the MIC in experiment [1] was over 50 µg/mL; in experiment [2] it was over 50 µg/mL; in experiment [3], over 50 µg/mL; in experiment [4], 0.78 µg/mL (≈ 2.3 µM); in experiment [5], 6.25 µg/mL (≈ 18.4 µM); in experiment [6] it was 0.39 µg/mL (≈ 1.15 µM).

As for `Fc1ccc(CN2CCc3ccccc3C2Cn2cncn2)c(F)c1` (stereo not drawn), the MIC was over 50 µg/mL in experiment [1]; over 50 µg/mL in experiment [2]; 0.39 µg/mL (≈ 1.15 µM) in experiment [3]; over 50 µg/mL in experiment [4]; over 50 µg/mL in experiment [5]; 2 µg/mL (≈ 5.88 µM) in experiment [6].

Consider `Clc1ccc(CN2CCc3ccccc3C2Cn2ccnc2)cc1` (stereo not drawn), for which the MIC in experiment [1] is 0.39 µg/mL (≈ 1.15 µM); in experiment [2], over 50 µg/mL; in experiment [3], 0.1 µg/mL (≈ 0.296 µM); in experiment [4] it was 0.19 µg/mL (≈ 0.562 µM); in experiment [5], 3.12 µg/mL (≈ 9.23 µM); in experiment [6], 0.19 µg/mL (≈ 0.562 µM).

With `Clc1ccc(CN2CCc3ccccc3C2Cn2cncn2)c(Cl)c1` (stereo not drawn), the MIC was 12.5 µg/mL (≈ 33.5 µM) in experiment [1]; over 50 µg/mL in experiment [2]; over 50 µg/mL in experiment [3]; over 50 µg/mL in experiment [4]; over 50 µg/mL in experiment [5]; 4 µg/mL (≈ 10.7 µM) in experiment [6].

Turning to `Fc1ccc(CN2CCc3ccccc3C2Cn2ccnc2)cc1` (stereo not drawn), the MIC was over 50 µg/mL in experiment [1]; over 50 µg/mL in experiment [2]; over 50 µg/mL in experiment [3]; 6.25 µg/mL (≈ 19.4 µM) in experiment [4]; 12.5 µg/mL (≈ 38.9 µM) in experiment [5]; 0.1 µg/mL (≈ 0.311 µM) in experiment [6].

Take `c1ccc(CN2CCc3ccccc3C2Cn2cncn2)cc1` (stereo not drawn): the MIC was over 50 µg/mL in experiment [1]; over 50 µg/mL in experiment [2]; over 50 µg/mL in experiment [3]; over 50 µg/mL in experiment [4]; over 50 µg/mL in experiment [5]; 4 µg/mL (≈ 13.1 µM) in experiment [6].

Regarding `C[C@@H]1[C@H](O)[C@@H](C)/C=C/C=C/C=C/C=C/C=C/C=C/C=C/[C@H](O[C@@H]2O[C@H](C)[C@@H](O)[C@H](N)[C@@H]2O)C[C@@H]2O[C@](O)(C[C@@H](O)C[C@@H](O)[C@H](O)CC[C@@H](O)C[C@@H](O)CC(=O)O[C@H]1C)C[C@H](O)[C@H]2C(=O)O` [AMPHOTERICIN B], the MIC in experiment [1] was 0.19 µg/mL (≈ 0.206 µM); in experiment [2], 0.19 µg/mL (≈ 0.206 µM); in experiment [3], 0.19 µg/mL (≈ 0.206 µM); in experiment [4], 12.5 µg/mL (≈ 13.5 µM); in experiment [5], 25 µg/mL (≈ 27.1 µM); in experiment [6], 1.56 µg/mL (≈ 1.69 µM).

`OC(Cn1cncn1)(Cn1cncn1)c1ccc(F)cc1F` [FLUCONAZOLE]: the MIC in experiment [1] is 3.12 µg/mL (≈ 10.2 µM); in experiment [7], over 50 µg/mL; in experiment [2] it was over 50 µg/mL; in experiment [3], 0.39 µg/mL (≈ 1.27 µM); in experiment [5], over 50 µg/mL; in experiment [8], over 50 µg/mL.

For the compound `Clc1ccc(COC(Cn2ccnc2)c2ccc(Cl)cc2Cl)c(Cl)c1` (stereo not drawn) [MICONAZOLE], the MIC in experiment [1] turned out to be 0.19 µg/mL (≈ 0.457 µM); in experiment [7] it was 0.39 µg/mL (≈ 0.937 µM); in experiment [2] it was 12.5 µg/mL (≈ 30 µM); in experiment [3], 0.09 µg/mL (≈ 0.216 µM); in experiment [5] it was 0.39 µg/mL (≈ 0.937 µM); in experiment [8] it was 0.39 µg/mL (≈ 0.937 µM).
